Consider eight substances from patent US7742877B1, “Methods, apparatus and computer program products for formulating culture media” (Becton, Dickinson & Company, priority 1999, dated 2010).

The test system of test [1] is bacterial cells genetically engineered to produce a heterologous protein of interest. Briefly: Protein production by bacterial cells grown in culture medium containing a test peptide (QSAR example, exemplary data). Type of test: cell-based. The settings on record: peptide included in culture medium of bacterial cells; exemplary (hypothetical) data. From the text: The present invention may be used to identify a peptide to include as a component of a culture medium. The culture medium may be used to culture bacterial cells genetically engineered to produce a heterologous protein of interest. Accordingly, it would be desirable to identify a peptide which when included in a culture medium will enhance protein production by bacterial cells grown in the culture medium (i.e., to satisfy a test requirement).
In this example, eight test peptides are selected from a tetrapeptide library: Asp-Lys-Ala-His (SEQ. ID. NO:23), Asp-Trp-Pro-Ala (SEQ. ID. NO:24), Glu-Ser-Met-His (SEQ. ID. NO:25), Gly-Val-Asn-Glu (SEQ. ID. NO:26), His-Glu-Asp-Val (SEQ. ID. NO:27), Glu-Thr-Gly-Ser (SEQ. ID. NO:28), His-Tyr-Gly-Val (SEQ. ID. NO:29, and Asp-Phe-Gly-Val (SEQ. ID. NO:30); Table 3). The test peptides may be selected from the library by any means known in the art. The values for three parameters (molecular weight, total charge, and mlogp, i.e., hydrophobicity) may be determined for each of the eight peptides. The indicia of the property, in this example a particular biological activity (i.e., protein production), may be determined for the eight peptides as well.

Test [2] concerns mammalian hybridoma cells producing and secreting antibodies. The test can be described thus: Antibody production by hybridoma cells cultured in medium containing a test peptide (nearest neighbor example, model data). The format is cell-based. The settings on record: for Observed Activity (antibody production): candidate peptides, (hypothetical) biological activities; for Biol. Act. (antibody production): training set peptide added to hybridoma culture medium, model data. From the text: One particular, and preferred, method of identifying compounds based on a distance function is nearest neighbor analysis. This method can be illustrated using the following simplified example with model data.
According to this illustrative example, the present invention can be used to identify a peptide as a culture medium component, e.g., for mammalian hybridoma cells producing and secreting antibodies. In particular, it is desirable to identify peptides, which when added to culture medium, will promote antibody production by hybridoma cells at a level greater than a test requirement. Four test peptides (Asp-Lys-Ala-His (SEQ. ID NO:23), Asp-Trp-Pro-Ala (SEQ. ID NO:24), Glu-Ser-Met-His (SEQ. ID NO:25), Gly-Val-Asn-Glu (SEQ. ID NO:26); i.e., a training set) may be selected from a peptide library as described above with respect to the QSAR example. Values to describe the various parameters of the peptides, for example, hydrophobicity (i.e., mlogp), molecular weight, and total charge may be calculated for each peptide (Table 5). Each peptide may be added to hybridoma culture medium and antibody production (i.e., biological activity) may be measured for the cells cultured in each culture medium (values shown in Table 5).
The peptides in the candidate set will then be assigned predicted indicia of the property based the closest peptide in the training set (Table 9).

For the substance His-Tyr-Gly-Val (HYGV), in test [1], the “Biol. Act. (protein production)” value came out at 23.6. Moreover, the “Observed Activity (antibody production)” value in test [2] stood at 23.6.
As for Asp-Trp-Pro-Ala (DWPA), the “Biol. Act. (protein production)” value in test [1] stood at 25.0. In test [2], the “Biol. Act. (antibody production)” value is listed as 25.0.
With Asp-Lys-Ala-His (DKAH), the “Biol. Act. (protein production)” value in test [1] worked out at 15.0. Also, the “Biol. Act. (antibody production)” value in test [2] was 15.0.
On to Gly-Val-Asn-Glu (GVNE), for which the “Biol. Act. (protein production)” value in test [1] was determined as 14.4. Also, the “Biol. Act. (antibody production)” value in test [2] came out at 14.4.
In the case of Glu-Thr-Gly-Ser (ETGS), the “Biol. Act. (protein production)” value in test [1] came to 10.2. For the same substance, in test [2], the “Observed Activity (antibody production)” value amounted to 10.2.
As for Asp-Phe-Gly-Val (DFGV), the “Biol. Act. (protein production)” value in test [1] stood at 22.0. Further, in test [2], the “Observed Activity (antibody production)” value is on record as 22.0.
Regarding His-Glu-Asp-Val (HEDV), the “Biol. Act. (protein production)” value in test [1] was 18.5. In addition, in test [2], the “Observed Activity (antibody production)” value is listed as 18.5.
Glu-Ser-Met-His (ESMH): the “Biol. Act. (protein production)” value in test [1] turned out to be 19.3. Moreover, the “Biol. Act. (antibody production)” value in test [2] is listed as 19.3.
